Measurements taken from patent US20030108622A1, “Cancer treatment composition and method using signal transduction modulators and natural plant essential oils as synergists for conventional treatments” (EcoSMART Technologies, Inc., priority 1998, published 2003).

How the values were obtained:
Assay type in all cases: cell-based, human
MCF-7 cells [1] = assay: Dose-response of signal transduction modulators on E2-induced cell proliferation, 3H-thymidine incorporation (Example 2)
Experimental: Dose-response of Signal Transduction Modulators on E2-Induced Cell Proliferation To determine the impact of two key signaling proteins, cAMP/PKA system and tyrosine kinase family member, c-Src kinase (p^src60) on estrogen-induced cell proliferation in human epithelial breast cancer cells, MCF-7 cells were cultured in growth DMEM medium supplemented with 10% fetal bovine serum (FBS). At 85% confluence, cells were sub-cultured in 5% FBS serum stripped medium, phenol red free for 24 hours prior to the treatment of the test chemical. […] Tamoxifen (TX) was used in parallel as positive control. Cell proliferation was measured using ^3H-thymidine incorporation. The study was done in triplicate and a control was used with solvent only. Control received solvent only at <0.1% ethanol.

MCF-7 cells [2] = assay: Effect of FK or GM on TX efficacy against E2-induced cell proliferation, 3H-thymidine incorporation (Example 3)
Experimental: In another experiment cells were treated with 10 nM E2 (=2.7 ng E2/ml) with three concentraion of GM (1, 5 and 10 ng/ml) 24 hours prior to cell proliferation assessment. Tamoxifen (TX) was used in parallel as positive control. Cell proliferation was measured using ^3H-thymidine incorporation. The study was done in triplicate and a control was used with solvent only. Control received solvent only at <0.1% ethanol.

MCF-7 cells [3] = assay: Dose-response of tamoxifen on E2-induced cell proliferation, 3H-thymidine incorporation (Example 1)
Experimental: Dose-Response of Tamoxifen on Estrogen (E2)-Induced Cell Proliferation MCF-7 cells were cultured in growth DMEM medium supplemented with 10% fetal bovine serum (FBS). […] […] Cell proliferation was measured using ^3H-thymidine incorporation. The study was done in triplicate and a control was used with solvent only. Control received solvent only at <0.1% ethanol.
In Table 1, percentage of control is calculated either based on the control (solvent only, ethanol 0.1%) or based on the E2 values which is between parenthesis.

MCF-7 cells [4] = assay: Time-course of E2-induced cell growth, cell count using trypan blue exclusion (Example 4); conditions: TX 1 μM alone + E2 10 nM; calculated on control value, FIG. 4
Experimental: Effect of cAMP Inducer on Efficacy and Stability of Tamoxifen MCF-7 cells were cultured in growth DMEM medium supplemented with 10% fetal bovine serum (FBS). At 85% confluence, cells were sub-cultured in 5% FBS serum stripped medium, phenol red free for 24 hours prior to the treatment of the test chemical. Cells were treated with 10 nM E2 (=2.7 ng E2/ml) with and without a mixture of 1 μM FK and 1 μM TX. Cell growth was measured 1, 2 and 5 days following treatment. Cell growth was determined by cell count using trypan blue exclusion. The study was done in duplicate and a control was used with solvent only. Control received solvent only at <. 1% ethanol.

MCF-7 cells [5] = assay: Cell growth without E2, 5 days, cell count using trypan blue exclusion (Examples 5-7); conditions: mixtures with TX; conclusion from the Examples, FIGS. 6-9
Experimental: MCF-7 cells were cultured in growth DMEM medium supplemented with 10% fetal bovine serum (FBS). At 85% confluence, cells were sub-cultured in 5% FBS serum stripped medium, phenol red free for 24 hours prior to the treatment of the test chemical. Cells were treated with and without a mixture of either 5 μM FK […] and 1 μM TX (=0.56 ug TX/ml) or a mixture of 1 μM TX (=0.56 ug TX/ml) and 1 μM FK. Cell growth was measured 5 days following treatment. Cell growth was determined by cell count using trypan blue exclusion. The study was done in duplicate and a control was used with solvent only. Control received solvent only at <0.1% ethanol.
MCF-7 cells were cultured in growth DMEM medium supplemented with 10% fetal bovine serum (FBS). At 85% confluence, cells were sub-cultured in 5% FBS serum stripped medium, phenol red free for 24 hours prior to the treatment of the test chemical. Cells were treated with and without a mixture of either 5 ng GM/ml and 5 μM TX (=2.8 ug TX/ml) or a mixture of 10 ng GM/ml and 5 μM TX (=2.8 ug TX/ml). Cell growth was measured 5 days following treatment. Cell growth was determined by cell count using trypan blue exclusion. […]
MCF-7 cells were cultured in growth DMEM medium supplemented with 10% fetal bovine serum (FBS). […] Cell growth was measured 5 days following treatment. Cell growth was determined by cell count using trypan blue exclusion. […]

[6] = TX 5 μM + E2 10 nM, based on solvent control
[7] = TX 5 μM + E2 10 nM, value in parenthesis, based on E2 value
[8] = TX 10 μM + E2 10 nM, based on solvent control

C=C[C@@]1(C)CC(=O)[C@]2(O)[C@@]3(C)[C@@H](O)CCC(C)(C)[C@@H]3[C@H](O)[C@H](OC(C)=O)[C@@]2(C)O1 [FK, forskolin]
% protection (MCF-7 cells [1]; FK 1 μM in the presence of 10 nM E2): 66%
% protection (MCF-7 cells [1]; FK 5 μM in the presence of 10 nM E2): 78%
% protection (MCF-7 cells [1]; FK 10 μM in the presence of 10 nM E2): 86%
activity at 1 µM (MCF-7 cells [1]; Homo sapiens, MCF7, FK 1 μM in the presence of 10 nM E2, read-out: 3H-Thymidine incorporation/μg protein (% of control)): 34%
activity at 5 µM (MCF-7 cells [1]; Homo sapiens, MCF7, FK 5 μM in the presence of 10 nM E2, read-out: 3H-Thymidine incorporation/μg protein (% of control)): 22%
activity at 10 µM (MCF-7 cells [1]; Homo sapiens, MCF7, FK 10 μM in the presence of 10 nM E2, read-out: 3H-Thymidine incorporation/μg protein (% of control)): 14%

COC1=C2C[C@@H](C)C[C@H](OC)[C@H](O)[C@@H](C)/C=C(\C)[C@H](OC(N)=O)[C@@H](OC)/C=C\C=C(/C)C(=O)NC(=CC1=O)C2=O [GM, geldanamycin]
activity at 0.001 µg/mL (MCF-7 cells [2]; Homo sapiens, MCF7, Table 4: GM 1 ng/ml, E2 10 nM = 100, read-out: 3H-Thymidine incorporation/μg protein (% of control)): 100%
activity at 0.005 µg/mL (MCF-7 cells [2]; Homo sapiens, MCF7, Table 4: GM 5 ng/ml, E2 10 nM = 100, read-out: 3H-Thymidine incorporation/μg protein (% of control)): 100%
activity at 0.01 µg/mL (MCF-7 cells [2]; Homo sapiens, MCF7, Table 4: GM 10 ng/ml, E2 10 nM = 100, read-out: 3H-Thymidine incorporation/μg protein (% of control)): 90%
% protection (MCF-7 cells [2]; Table 4: GM 1 ng/ml, E2 10 nM = 100): 0%
% protection (MCF-7 cells [2]; Table 4: GM 5 ng/ml, E2 10 nM = 100): 0%
% protection (MCF-7 cells [2]; Table 4: GM 10 ng/ml, E2 10 nM = 100): 10%
3H-Thymidine incorporation/μg protein (% of control) (MCF-7 cells [1]; GM 1 ng/ml in the presence of 10 nM E2): no effect
3H-Thymidine incorporation/μg protein (% of control) (MCF-7 cells [1]; GM 5 ng/ml in the presence of 10 nM E2): no effect
inhibition of the E2-induced cell proliferation (MCF-7 cells [1]; GM 10 ng/ml): did not inhibit
% protection (MCF-7 cells [1]; GM 10 ng/ml in the presence of 10 nM E2): 6%
activity at 0.01 µg/mL (MCF-7 cells [1]; Homo sapiens, MCF7, GM 10 ng/ml in the presence of 10 nM E2, read-out: 3H-Thymidine incorporation/μg protein (% of control)): 94%

CC/C(=C(\c1ccccc1)c1ccc(OCCN(C)C)cc1)c1ccccc1 [TX, tamoxifen]
activity at 1 µM (MCF-7 cells [3]; Homo sapiens, MCF7, TX 1 μM, without E2, based on solvent control): 42%
activity at 5 µM (MCF-7 cells [3]; Homo sapiens, MCF7, TX 5 μM, without E2, based on solvent control): 36%
activity at 10 µM (MCF-7 cells [3]; Homo sapiens, MCF7, TX 10 μM, without E2, based on solvent control): 33%
3H-thymidine incorporation dpm (MCF-7 cells [3]; TX 1 μM + E2 10 nM): 12336 dpm
3H-thymidine incorporation dpm/μg protein (MCF-7 cells [3]; TX 1 μM + E2 10 nM): 379.6 dpm/μg protein
3H-thymidine incorporation % of control (MCF-7 cells [3]; TX 1 μM + E2 10 nM, based on solvent control): 124%
% protection (based on E2 value) (MCF-7 cells [3]; TX 1 μM + E2 10 nM, value in parenthesis, based on E2 value): (21) %
3H-thymidine incorporation dpm (MCF-7 cells [3]; TX 1 μM, without E2): 2586 dpm
3H-thymidine incorporation dpm/μg protein (MCF-7 cells [3]; TX 1 μM, without E2): 129.3 dpm/μg protein
% protection (MCF-7 cells [3]; TX 1 μM, without E2): 58%
3H-thymidine incorporation dpm (MCF-7 cells [3]; TX 5 μM + E2 10 nM): 4007 dpm
3H-thymidine incorporation dpm/μg protein (MCF-7 cells [3]; TX 5 μM + E2 10 nM): 260.2 dpm/μg protein
3H-thymidine incorporation % of control (MCF-7 cells [3]; [6]): 85%
% protection (MCF-7 cells [3]; [6]): 15%
3H-thymidine incorporation % of control (based on E2 value) (MCF-7 cells [3]; [7]): 53%
% protection (based on E2 value) (MCF-7 cells [3]; [7]): 47%
3H-thymidine incorporation dpm (MCF-7 cells [3]; TX 5 μM, without E2): 1848 dpm
3H-thymidine incorporation dpm/μg protein (MCF-7 cells [3]; TX 5 μM, without E2): 112.0 dpm/μg protein
% protection (MCF-7 cells [3]; TX 5 μM, without E2): 64%
3H-thymidine incorporation dpm (MCF-7 cells [3]; TX 10 μM + E2 10 nM): 3239 dpm
3H-thymidine incorporation dpm/μg protein (MCF-7 cells [3]; TX 10 μM + E2 10 nM): 118.5 dpm/μg protein
3H-thymidine incorporation % of control (MCF-7 cells [3]; [8]): 39%
% protection (MCF-7 cells [3]; [8]): 61%
% protection (based on E2 value) (MCF-7 cells [3]; TX 10 μM + E2 10 nM, value in parenthesis, based on E2 value): 75%
3H-thymidine incorporation dpm (MCF-7 cells [3]; TX 10 μM, without E2): 1545 dpm
3H-thymidine incorporation dpm/μg protein (MCF-7 cells [3]; TX 10 μM, without E2): 99.8 dpm/μg protein
% protection (MCF-7 cells [3]; TX 10 μM, without E2): 67%
antagonistic action against the E2-induced cell proliferation (MCF-7 cells [3]; TX 1-10 μM, Table 1): dose-dependent
potency against the E2-induced cell proliferation (MCF-7 cells [3]; low concentrations 0.56 ug/ml to 2.8 ug/ml (=1 - 5 μM)): potent
protection against the biological activity of E2 (MCF-7 cells [2]; 1 μM TX alone, FIG. 2): ~25%
protection against the E2-induced cancer cell growth (MCF-7 cells [2]; 5 μM TX alone, FIG. 2): 45%
activity at 5 µM (MCF-7 cells [2]; Homo sapiens, MCF7, Table 4: 5 μM TX + E2, E2 10 nM = 100, read-out: 3H-Thymidine incorporation/μg protein (% of control)): 54%
% protection (MCF-7 cells [2]; Table 4: 5 μM TX + E2 (TX alone)): 46%
antiestrogenic action (MCF-7 cells [1]; 1-10 μM, Table 2): dose-dependent
activity at 1 µM (MCF-7 cells [1]; Homo sapiens, MCF7, TX 1 μM in the presence of 10 nM E2, read-out: 3H-Thymidine incorporation/μg protein (% of control)): 79%
activity at 5 µM (MCF-7 cells [1]; Homo sapiens, MCF7, TX 5 μM in the presence of 10 nM E2, read-out: 3H-Thymidine incorporation/μg protein (% of control)): 54%
activity at 10 µM (MCF-7 cells [1]; Homo sapiens, MCF7, TX 10 μM in the presence of 10 nM E2, read-out: 3H-Thymidine incorporation/μg protein (% of control)): 25%
% protection (MCF-7 cells [1]; TX 1 μM in the presence of 10 nM E2): 21%
% protection (MCF-7 cells [1]; TX 5 μM in the presence of 10 nM E2): 46%
% protection (MCF-7 cells [1]; TX 10 μM in the presence of 10 nM E2): 75%
time over which the E2 action is antagonized (MCF-7 cells [4]): up to 48 hr

COc1cccc(-c2cc(=O)c3ccccc3o2)c1N [PD98059]
synergy with the anticancer activity of tamoxifen in breast cancer cells (MCF-7 cells [5]): synergize the anticancer activity of tamoxifen
